Data reported in patent US11786494B2, “Methods of modulation of branched chain acids and uses thereof” (Baylor College of Medicine, priority 2009, dated 2023).

Columns and labels:
[1] = biological target: T1, phosphorylated E1 (Homo sapiens, UniProt P12694+P21953); test: E1 decarboxylase activity measured after inactivation by BDK; type: biochemical
T1 sequence (P12694 46-445): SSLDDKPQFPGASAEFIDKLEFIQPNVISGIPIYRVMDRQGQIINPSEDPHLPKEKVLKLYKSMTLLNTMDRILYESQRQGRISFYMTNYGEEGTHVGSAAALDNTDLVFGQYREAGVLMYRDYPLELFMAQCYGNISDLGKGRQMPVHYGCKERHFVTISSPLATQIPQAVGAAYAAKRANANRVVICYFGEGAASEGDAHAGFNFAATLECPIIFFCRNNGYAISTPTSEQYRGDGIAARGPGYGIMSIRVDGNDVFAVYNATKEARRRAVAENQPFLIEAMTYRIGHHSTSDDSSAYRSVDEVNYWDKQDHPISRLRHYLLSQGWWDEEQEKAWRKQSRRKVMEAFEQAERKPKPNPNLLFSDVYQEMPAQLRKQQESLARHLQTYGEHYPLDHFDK
T1 sequence (P21953 51-392): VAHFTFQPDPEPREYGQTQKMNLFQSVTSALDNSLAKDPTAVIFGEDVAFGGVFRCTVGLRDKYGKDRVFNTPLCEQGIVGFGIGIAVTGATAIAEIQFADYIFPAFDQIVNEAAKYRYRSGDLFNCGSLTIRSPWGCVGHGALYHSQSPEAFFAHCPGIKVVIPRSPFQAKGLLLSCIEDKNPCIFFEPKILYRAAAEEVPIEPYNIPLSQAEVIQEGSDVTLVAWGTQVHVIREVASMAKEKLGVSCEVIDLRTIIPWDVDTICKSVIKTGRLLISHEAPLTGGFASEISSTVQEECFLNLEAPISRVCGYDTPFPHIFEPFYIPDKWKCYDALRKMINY
Description: To determine the effect of phenylbutyrate on individual BCAA catabolic enzymes, activities of mitochondrial branched chain amino transferase (BCATm) and BCKDC enzymes were measured with and without phenylbutyrate using purified recombinant enzymes. BCATm generates the BCKA products that are elevated in MSUD and are the substrates for BCKDC. BCATm activity was measured at pH 8.0 and 298 K as described in Example 2. Kinetics of the E1 decarboxylase reaction with and without phenylbutyrate were determined in the presence of an artificial electron acceptor 2, 6-dichlorophenolindophenol (DCPIP). The assay mixture contained 100 mM potassium phosphate, pH 7.5, 2.0 mM MgCl2, 0.2 mM thiamin diphosphate (ThDP) and 0.1 mM DCPIP. The rate of decarboxylation at 30° C. was measured by monitoring the reduction of the dye at 600 nm (24, 25). For the overall BCKDC activity assay, the enzymes were exchanged into phosphate buffer (30 mM potassium phosphate, pH 7.5) containing 5 mM DTT using a PD-10 column and the enzyme concentrations were calculated from the absorption maxima at 280 nm. […] The overall reaction was monitored by formation of NADH at 340 nm. The apparent rate constants (kapp) at different substrate concentrations for all of the above assays were determined from the absorption changes at the individual wavelength maximum. […]

[2] = system: BCKDC; test: Leucine oxidation in lymphoblast cell lines without CIC; type: cell-based, human
Description: FIGS. 7A-7C. FIGS. 7A and 7B show leucine oxidation in lymphoblast cells from control subjects (C-660, C-661) and MSUD patients (P-1, -2, -3, -4, -5) untreated or treated with 1 mM phenylbutyrate for 48 h. Leucine oxidation was measured by using radioactive assay as described in Materials and Methods and is expressed in pmol CO2 released/min/mg protein. Values are means±SD (n=3), * p≥0.05, **p≥0.01. […] Images are representative of three independent experiments.
Following treatment with phenylbutyrate, enzyme activity in control and patients' lymphoblast cell lines was measured. Transformed lymphoblast cell lines were available from all 5 MSUD patients and from 2 controls to measure BCKDC activity. Lymphoblasts were incubated for 48 h with and without 1 mM phenylbutyrate (a lower concentration of phenylbutyrate was used because of higher sensitivity of these cells as compared to fibroblasts to the drug) then BCKDC activity was measured without α-chloroisocaproate addition (CIC). […] Thus, in cells from the two patients with E2 mutations (Table 7), activation of enzyme activity results from inhibition of phosphorylation state of E1α, in specific embodiments of the invention.

[3] = system: E1α-phospho/E1α, E2, BCATm, BCATc; test: Western blotting of BCKD complex and BCAT isozymes in lymphoblast cells; type: cell-based, human
[4] = system: BCKDC; test: Leucine oxidation in lymphoblast cells in presence of CIC; type: cell-based, human; conditions: patient 3 lymphoblasts, 1 mM phenylbutyrate 48 h, 1 mM CIC in the assay
Description: FIGS. 8A-8C. FIGS. 8A and 8B show leucine oxidation in presence of CIC in lymphoblast cells from control subjects (C-660, C-661) and MSUD patients (P-1, -2, -3, -4, -5) untreated or treated with 1 mM phenylbutyrate for 48 h. Leucine oxidation was measured by using radioactive assay as described in Materials and Methods and is expressed in pmol CO2 released/min/mg protein. CIC was added to all reactions in 1 mM concentration. Values are means±SD (n=3), * p≥0.05, **p≥0.01. […] Images are representative of two independent experiments.
Because phenylbutyrate affects E1α phosphorylation state in vivo (see FIG. 5), leucine oxidation was measured in the same cell lines as in FIG. […] with CIC in the assay. […] Changes in BCAT isoenzyme activity also impacts BCKA production, in specific cases. All patient cell lines accumulated more KIC than observed in control cell lines.

- effect on phosphorylated E1 (inactive enzyme) [1]: did not have an effect
- kcat, KMV ([1]; E1 phosphorylated first with BDK (0.1 μg) and ATP (0.4 mM), [+] Phenylbutyrate): 0.01 ± 0.0017 s⁻¹
SMILES: O=C([O-])CCCc1ccccc1.[Na+] [phenylbutyrate, sodium 4-phenylbutyrate]
- leucine oxidation ([2]; MSUD patient lymphoblasts with the exception of patient 5, 1 mM for 48 h): significantly enhanced
- leucine oxidation ([2]; control lymphoblasts (C-660, C-661), 1 mM for 48 h): significantly enhanced
- leucine oxidation increase ([2]; patient 5 lymphoblasts, 1 mM for 48 h): not significant
- levels of cytosolic isozyme BCATc ([3]; all of the lymphoblasts but patient 5, 1 mM 48 h): appeared to increase
- levels of the mitochondrial isozyme BCATm ([3]; both controls and patients 1 through 3, 1 mM 48 h): slightly elevated
- phosphorylation state of E1α ([3]; lymphoblasts from controls and patients 1, 2 and 3, 1 mM phenylbutyrate 48 h): Neither the controls nor patients 1, 2 and 3 responded
- phosphorylation state of E1α ([3]; lymphoblasts from patients 4 and 5, 1 mM phenylbutyrate 48 h, no apparent change in E1 levels): decrease
- leucine oxidation rates [4]: nearly doubled
